Results on 27 compounds are retold here after patent US20260028365A1 (BIOGEN MA INC., priority 2022, published 2026).

The target in assay [1] is JH2 domain of human Tyk2 (Homo sapiens (Human), UniProt P29597). Kind of assay: JH2 Biochemical Assay (TR-FRET probe displacement). The assay is classed as binding. On the technique in general: TR-FRET usually uses a lanthanide donor and a delayed reading to cut background.
In assay [2] the target is Tyk2 (Homo sapiens (Human), UniProt P29597). Kind of assay: pSTAT4 Cell Assay (MSD, NK92 cells). Type of assay: cell-based.
Sequence of Tyk2 (P29597 whole entry, the tested form may be a part): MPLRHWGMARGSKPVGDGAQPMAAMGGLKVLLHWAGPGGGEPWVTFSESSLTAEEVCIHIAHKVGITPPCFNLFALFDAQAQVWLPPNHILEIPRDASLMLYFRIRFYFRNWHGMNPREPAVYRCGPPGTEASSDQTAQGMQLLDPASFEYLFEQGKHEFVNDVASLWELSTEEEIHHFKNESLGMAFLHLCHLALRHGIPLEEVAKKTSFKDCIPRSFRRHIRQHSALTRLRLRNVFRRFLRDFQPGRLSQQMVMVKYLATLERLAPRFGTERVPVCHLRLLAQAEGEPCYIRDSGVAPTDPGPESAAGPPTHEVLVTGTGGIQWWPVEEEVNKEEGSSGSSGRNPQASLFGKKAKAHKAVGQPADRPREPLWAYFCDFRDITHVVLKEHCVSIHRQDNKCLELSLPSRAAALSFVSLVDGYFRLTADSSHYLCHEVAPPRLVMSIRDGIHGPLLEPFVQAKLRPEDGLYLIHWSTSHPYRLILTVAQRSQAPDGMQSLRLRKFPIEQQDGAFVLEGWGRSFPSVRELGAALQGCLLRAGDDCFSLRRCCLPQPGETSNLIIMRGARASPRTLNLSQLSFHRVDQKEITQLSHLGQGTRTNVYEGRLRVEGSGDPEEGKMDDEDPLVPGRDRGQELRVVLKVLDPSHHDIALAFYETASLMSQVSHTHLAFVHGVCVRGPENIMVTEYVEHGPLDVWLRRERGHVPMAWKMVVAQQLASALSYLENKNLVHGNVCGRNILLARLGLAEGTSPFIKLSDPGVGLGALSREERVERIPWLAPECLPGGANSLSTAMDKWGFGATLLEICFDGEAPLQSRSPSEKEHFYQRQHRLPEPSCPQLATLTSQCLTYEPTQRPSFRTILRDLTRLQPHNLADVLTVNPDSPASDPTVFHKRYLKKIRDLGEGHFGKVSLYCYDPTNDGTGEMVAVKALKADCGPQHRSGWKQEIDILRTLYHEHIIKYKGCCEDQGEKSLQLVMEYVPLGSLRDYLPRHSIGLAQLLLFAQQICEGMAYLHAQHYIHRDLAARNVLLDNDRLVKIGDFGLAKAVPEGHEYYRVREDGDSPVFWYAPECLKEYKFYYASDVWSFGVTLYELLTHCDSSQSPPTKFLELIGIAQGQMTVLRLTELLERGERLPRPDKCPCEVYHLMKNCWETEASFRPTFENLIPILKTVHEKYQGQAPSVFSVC
Setting [3] is: JH2 domain of human Tyk2, TR-FRET probe displacement.
The mark [4] stands for this setting: TR-FRET probe displacement, JH2 domain of human Tyk2.
Setting [5] is: TR-FRET probe displacement, JH2 domain.

Like-named read-outs stand apart in the source and are kept apart here. Bounds are passed on as bounds.

Sequence of JH2 domain of human Tyk2 (P29597 575-876): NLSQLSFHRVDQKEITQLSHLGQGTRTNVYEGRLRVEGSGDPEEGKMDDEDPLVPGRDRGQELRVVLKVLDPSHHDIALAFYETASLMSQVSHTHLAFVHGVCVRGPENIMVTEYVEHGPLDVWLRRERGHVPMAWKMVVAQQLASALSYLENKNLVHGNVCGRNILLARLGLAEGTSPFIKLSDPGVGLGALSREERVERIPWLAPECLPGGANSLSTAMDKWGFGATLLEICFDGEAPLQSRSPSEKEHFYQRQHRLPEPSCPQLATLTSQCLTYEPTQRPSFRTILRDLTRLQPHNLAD

As usually defined, the IC50 is the concentration that inhibits the measured activity by half. Lower therefore signals inhibition by little substance. As to `CC(=O)Nc1cc(Nc2ccnc(C(C)(F)F)n2)c(-n2cc(C)cn2)cn1` [Example 728, N-(4-((2-(1,1-difluoroethyl)pyrimidin-4-yl)amino)-5-(4-methyl-1H-pyrazol-1-yl)pyridin-2-yl)acetamide], the IC50 in assay [1] (setting [3]) is at most 10 nM; in assay [2] (MSD), 10 to 100 nM.
With `CO[C@H]1C[C@@H](Oc2cc(Nc3cc(NC(C)=O)ncc3-c3ccn(C)n3)nc(C(C)(F)F)c2)C1` [Example 211, N-(4-((6-(1,1-difluoroethyl)-4-((1s,3s)-3-methoxycyclobutoxy)pyridin-2-yl)amino)-5-(1-methyl-1H-pyrazol-3-yl)pyridin-2-yl)acetamide], the IC50 in assay [1] (setting [4]) and in assay [2] (MSD) was at most 10 nM throughout.
For the compound `CC(=O)Nc1cc(Nc2ccnc(C(C)(F)F)n2)c(-c2ccc(N3C[C@@H]4C[C@H]3CO4)nn2)cn1` [Example 876, N-(5-(6-((1S,4S)-2-oxa-5-azabicyclo[2.2.1]heptan-5-yl)pyridazin-3-yl)-4-((2-(1,1-difluoroethyl)pyrimidin-4-yl)amino)pyridin-2-yl)acetamide], the IC50 in assay [1] (setting [5]) and in assay [2] was at most 10 nM each time.
`CC(=O)Nc1cc(Nc2cc(C)nc(C(C)(F)F)n2)c(-c2cc(C(C)(C)N(C)C)n(C)n2)cn1` [Example 802, N-(4-((2-(1,1-difluoroethyl)-6-methylpyrimidin-4-yl)amino)-5-(5-(2-(dimethylamino)propan-2-yl)-1-methyl-1H-pyrazol-3-yl)pyridin-2-yl)acetamide]: the IC50 in assay [1] (setting [5]) and in assay [2] was at most 10 nM throughout.
As for `CC(=O)Nc1cc(Nc2ccnc(C(C)(F)F)n2)c(-c2cnn(CCN3CCN(C)CC3)n2)cn1` [Example 779, N-(4-((2-(1,1-difluoroethyl)pyrimidin-4-yl)amino)-5-(2-(2-(4-methylpiperazin-1-yl)ethyl)-2H-1,2,3-triazol-4-yl)pyridin-2-yl)acetamide], the half-maximal inhibitory concentration (IC50) in assay [1] (setting [5]) is at most 10 nM; in assay [2], 10 to 100 nM.
As for `CCc1cc(Nc2cc(NC(C)=O)ncc2OCCF)nc(C(C)(F)F)n1` [Example 407, N-(4-((2-(1,1-difluoroethyl)-6-ethylpyrimidin-4-yl)amino)-5-(2-fluoroethoxy)pyridin-2-yl)acetamide], the IC50 in assay [1] (setting [3]) and in assay [2] (MSD) was at most 10 nM throughout.
As for `COCc1cnc(-c2cnc(NC(C)=O)cc2Nc2ccnc(C(C)(F)F)n2)s1` [Example 781, N-(4-((2-(1,1-difluoroethyl)pyrimidin-4-yl)amino)-5-(5-(methoxymethyl)thiazol-2-yl)pyridin-2-yl)acetamide], the half-maximal inhibitory concentration (IC50) in assay [1] (setting [5]) and in assay [2] was at most 10 nM each time.
With `CC(=O)Nc1cc(Nc2cc(C)nc(C(C)(F)F)n2)c(-c2cc(N(C)C)ccn2)cn1` [Example 627, N-(4′-((2-(1,1-difluoroethyl)-6-methylpyrimidin-4-yl)amino)-4-(dimethylamino)-[2,3′-bipyridin]-6′-yl)acetamide], the IC50 in assay [1] (setting [3]) was 100 to 1000 nM; in assay [2] (MSD), at least 1000 nM.
For `CC(=O)Nc1cc(Nc2cc(C)nc(C(C)(F)F)n2)c(OCc2cccnc2)cn1` [Example 355, N-(4-((2-(1,1-difluoroethyl)-6-methylpyrimidin-4-yl)amino)-5-(pyridin-3-ylmethoxy)pyridin-2-yl)acetamide], the IC50 in assay [1] (setting [4]) is at most 10 nM; in assay [2] (MSD), 10 to 100 nM.
For `COc1cnnc(-c2cnc(NC(C)=O)cc2Nc2cc(C)nc(C(C)(F)F)n2)c1` [Example 753, N-(4-((2-(1,1-difluoroethyl)-6-methylpyrimidin-4-yl)amino)-5-(5-methoxypyridazin-3-yl)pyridin-2-yl)acetamide], the IC50 in assay [1] (setting [5]) was at most 10 nM; in assay [2], at least 1000 nM.
Regarding `COc1cnc(NC(C)=O)cc1Nc1cc(-c2cnn(C(C)C)c2F)nc(C(C)(F)F)n1` [Example 383, N-(4-((2-(1,1-difluoroethyl)-6-(5-fluoro-1-isopropyl-1H-pyrazol-4-yl)pyrimidin-4-yl)amino)-5-methoxypyridin-2-yl)acetamide], the half-inhibitory concentration (IC50) in assay [1] (setting [3]) and in assay [2] (MSD) was 10 to 100 nM in each case.
For `CCCc1cnc(NC(C)=O)cc1Nc1cc(C)nc(C(C)(F)F)n1` [Example 43, N-(4-((2-(1,1-difluoroethyl)-6-methylpyrimidin-4-yl)amino)-5-propylpyridin-2-yl)acetamide], the IC50 in assay [1] (setting [4]) is 10 to 100 nM; in assay [2] (MSD) it was at least 1000 nM.
`CCOc1cnc(NC(C)=O)cc1Nc1cc(OC2CC(F)(F)C2)nc(C(C)(F)F)n1` [Example 459, N-(4-((6-(3,3-difluorocyclobutoxy)-2-(1,1-difluoroethyl)pyrimidin-4-yl)amino)-5-ethoxypyridin-2-yl)acetamide]: the IC50 was at most 10 nM in assay [1] (setting [3]) and 10 to 100 nM in assay [2] (MSD).
As to `COCCOc1cnc(NC(C)=O)cc1Nc1nc(C)cc(C(C)(C)F)n1` [Example 441, N-(4-((4-(2-fluoropropan-2-yl)-6-methylpyrimidin-2-yl)amino)-5-(2-methoxyethoxy)pyridin-2-yl)acetamide], the figures for the IC50 in assay [1] (setting [3]) and in assay [2] (MSD) were at most 10 nM and 100 to 1000 nM, respectively.
With `CCc1cc(Nc2cc(NC(C)=O)ncc2-c2ncn(C)n2)nc(C(C)(F)F)n1` [Example 166, N-(4-((2-(1,1-difluoroethyl)-6-ethylpyrimidin-4-yl)amino)-5-(1-methyl-1H-1,2,4-triazol-3-yl)pyridin-2-yl)acetamide], the IC50 is at most 10 nM in assay [1] (setting [4]) and 10 to 100 nM in assay [2] (MSD).
`COc1cnc(NC(C)=O)cc1Nc1cc(-c2cnn(C3CCC3)c2)nc(C(C)(F)F)n1` [Example 374, N-(4-((6-(1-cyclobutyl-1H-pyrazol-4-yl)-2-(1,1-difluoroethyl)pyrimidin-4-yl)amino)-5-methoxypyridin-2-yl)acetamide]: the IC50 was in the range of 10 to 100 nM in assay [1] (setting [3]) and 100 to 1000 nM in assay [2] (MSD).
On to `CC(=O)Nc1cc(Nc2ccnc(C(C)(F)F)n2)c(-c2cc(C)ccn2)cn1` [Example 700, N-(4′-((2-(1,1-difluoroethyl)pyrimidin-4-yl)amino)-4-methyl-[2,3′-bipyridin]-6′-yl)acetamide], for which the figures for the IC50 in assay [1] (setting [3]) and in assay [2] (MSD) were at most 10 nM and 10 to 100 nM, respectively.
For the compound `CC(=O)Nc1cc(Nc2cc(C)nc(C(C)(F)F)n2)c(OC[C@H](C)OC(C)(C)C)cn1` [Example 318, (S)-N-(5-(2-(tert-butoxy)propoxy)-4-((2-(1,1-difluoroethyl)-6-methylpyrimidin-4-yl)amino)pyridin-2-yl)acetamide], the 50% inhibitory concentration (IC50) in assay [1] (setting [4]) is at most 10 nM; in assay [2] (MSD), 100 to 1000 nM.
Regarding `CC(=O)Nc1cc(Nc2cc(C)nc(C(C)(F)F)n2)c(-c2cccc(CN3CCOCC3)n2)cn1` [Example 650, N-(4′-((2-(1,1-difluoroethyl)-6-methylpyrimidin-4-yl)amino)-6-(morpholinomethyl)-[2,3′-bipyridin]-6′-yl)acetamide], the concentration for half-maximal inhibition (IC50) in assay [1] (setting [3]) and in assay [2] (MSD) was at most 10 nM in each case.
As to `CC(=O)Nc1cc(Nc2cc(C)nc(C(C)(F)F)n2)c(O[C@H]2C[C@@H](F)C2)cn1` [Example 412, N-(4-((2-(1,1-difluoroethyl)-6-methylpyrimidin-4-yl)amino)-5-((1s,3s)-3-fluorocyclobutoxy)pyridin-2-yl)acetamide], the IC50 is at most 10 nM in assay [1] (setting [3]) and 10 to 100 nM in assay [2] (MSD).
As for `CC(=O)Nc1cc(Nc2cc(C)nc(C(C)(F)F)n2)c(OCc2noc(C)n2)cn1` [Example 498, N-(4-((2-(1,1-difluoroethyl)-6-methylpyrimidin-4-yl)amino)-5-((5-methyl-1,2,4-oxadiazol-3-yl)methoxy)pyridin-2-yl)acetamide], the IC50 is at most 10 nM in assay [1] (setting [3]) and 100 to 1000 nM in assay [2] (MSD).
Take `CCc1cc(Nc2cc(NC(C)=O)ncc2-c2cnc(CN3C[C@H]4C[C@@H](C3)O4)cn2)nc(C(C)(F)F)n1` [Example 900, N-(5-(5-(((1R,5S)-6-oxa-3-azabicyclo[3.1.1]heptan-3-yl)methyl)pyrazin-2-yl)-4-((2-(1,1-difluoroethyl)-6-ethylpyrimidin-4-yl)amino)pyridin-2-yl)acetamide]: the IC50 in assay [1] (setting [5]) and in assay [2] was at most 10 nM in each case.
Regarding `CC(=O)Nc1cc(Nc2ccnc(C(C)(F)F)n2)c(-c2cc3n(n2)CCN(CC#N)C3)cn1` [Example 736, N-(5-(5-(cyanomethyl)-4,5,6,7-tetrahydropyrazolo[1,5-a]pyrazin-2-yl)-4-((2-(1,1-difluoroethyl)pyrimidin-4-yl)amino)pyridin-2-yl)acetamide], the IC50 in assay [1] (setting [3]) and in assay [2] (MSD) was at most 10 nM each time.
For `COCCOc1cncc(-c2cnc(NC(C)=O)cc2Nc2ccnc(C(C)(F)F)n2)n1` [Example 691, N-(4-((2-(1,1-difluoroethyl)pyrimidin-4-yl)amino)-5-(6-(2-methoxyethoxy)pyrazin-2-yl)pyridin-2-yl)acetamide], the half-inhibitory concentration (IC50) lay within 10 to 100 nM in assay [1] (setting [3]) and 100 to 1000 nM in assay [2] (MSD).
With `COC(=O)Nc1cc(Nc2cc(OC3CC3)nc(C(C)(F)F)n2)c(OCCN(C)C)cn1` [Example 447, methyl (4-((6-cyclopropoxy-2-(1,1-difluoroethyl)pyrimidin-4-yl)amino)-5-(2-(dimethylamino)ethoxy)pyridin-2-yl)carbamate], the IC50 in assay [1] (setting [3]) is at most 10 nM; in assay [2] (MSD), 10 to 100 nM.
For the compound `CC(=O)Nc1cc(Nc2cc(C)nc(C(C)(F)F)n2)c(-c2nsc(N(C)C)n2)cn1` [Example 763, N-(4-((2-(1,1-difluoroethyl)-6-methylpyrimidin-4-yl)amino)-5-(5-(dimethylamino)-1,2,4-thiadiazol-3-yl)pyridin-2-yl)acetamide], the IC50 in assay [1] (setting [5]) was at most 10 nM; in assay [2], 100 to 1000 nM.
Consider `CC(=O)Nc1cc(Nc2cccc(C(C)(F)F)n2)c(-c2cc(=O)n(C)cn2)cn1` [Example 161, N-(4-((6-(1,1-difluoroethyl)pyridin-2-yl)amino)-5-(1-methyl-6-oxo-1,6-dihydropyrimidin-4-yl)pyridin-2-yl)acetamide], for which the IC50 in assay [1] (setting [4]) was at most 10 nM; in assay [2] (MSD) it was 10 to 100 nM.
